Laboratory results: patent publication US7795299B2, “Neo-tanshinlactone and analogs as potent and selective anti-breast cancer agents” (The University of North Carolina at Chapel Hill, priority 2004, dated 2010)
≈ marks a conversion by molar mass, not a printed value. Where “and” joins values, the source holds several entries; their conditions need not be identical. Equal values may be shown once. Where a name gives a salt, the structure may show the parent alone.

Experiments:
SW620 (colon cancer) = assay: In vitro anticancer assay (SRB), SW620; type: cell-based, human
Description: (§1) In Vitro Anticancer Assay (Nakanishi, Y. et al., J. Med. Chem. 2003, 46, 3185). All stock cultures were grown in T-25 flasks. Freshly trypsinized cell suspensions were seeded in 96-well microtiter plates at densities of 1500-7500 cells per well with compounds added from DMSO-diluted stock. After 3 days in culture, attached cells were fixed with cold 50% trichloroacetic acid and then stained with 0.4% sulforhodamine B (SRB). The absorbency at 562 nm was measured using a microplate reader after solubilizing the bound dye. The mean ED50 is the concentration of agent that reduces cell growth by 50% under the experimental conditions and is the average from at least three independent determinations that were reproducible and statistically significant (FIG. 2). The following human tumor cell lines were used in the assay: A549 (non small cell lung cancer), MCF-7 (estrogen receptor positive breast cancer), ZR-75-1 (estrogen receptor positive breast cancer), MDA-MB-231 (estrogen receptor negative breast cancer), HS 587-T (estrogen receptor negative breast cancer), SK− BR-3 (HER-2-overexpressing breast cancer), A431 (EGFRoverexpressing skin cancer), LN-CaP (AR-dependent prostate cancer), SW620 (colon cancer), PC-3 (prostate cancer), KB (nasopharyngeal carcinoma), KB-VIN (vincristine-resistant KB subline). All cell lines were obtained from the Lineberger Comprehensive Cancer Center (UNC-CH) or from ATCC (Rockville, Md.) and were cultured in RPMI-1640 medium supplemented with 25 mMHEPES, 0.25% sodium bicarbonate, 10% fetal bovine serum, and 100 μg/mL kanamycin.
(§2) Biological assay. All stock cultures are grown in T-25 flasks. Freshly trypsinized cell suspensions were seeded in 96-well microtitre plates at densities of 1500-7500 cells per well with compounds added from DMSO-diluted stock. After 3 days in culture, attached cells were fixed with cold 50% trichloroacetic acid and then stained with 0.4% sulforhodamine B (SRB). The absorbency at 562 nm was measured using a microplate reader after solubilizing the bound dye. The mean ED50 is the concentration of agent that reduces cell growth by 50% under the experimental conditions and is the average from at least three independent determinations that were reproducible and statistically significant. The following human tumor cell lines were used in the assay: A549 (non-small cell lung cancer), MCF-7 (estrogen receptor positive breast cancer), ZR-75-1 (estrogen receptor positive breast cancer), MDA MB-231 (estrogen receptor negative breast cancer), HS 587-T (estrogen receptor negative breast cancer), SK-BR-3 (estrogen receptor negative, HER-2 over-expressing breast cancer), A431 (EGFR over-expressing skin cancer), LN-CaP (AR-dependent prostate cancer), SW620 (colon cancer), PC-3 (prostate cancer), KB (nasopharyngeal carcinoma), KB-VIN (Vincristine resistant KB subline). All cell lines were obtained from the Lineberg Cancer Center (UNC-CH) or from ATCC (Rockville, Md.) and were cultured in RPMI-1640 medium supplemented with 25 mM HEPES, 0.25% sodium bicarbonate, 10% fetal bovine serum, and 100 μg/mL kanamycin.

[1] = tested on: SK-BR-3 (HER-2-overexpressing breast cancer); assay: In vitro anticancer assay (SRB), SK-BR-3; type: cell-based, human
Description: as §1, §2

[2] = tested on: MCF-7 (estrogen receptor positive breast cancer); assay: In vitro anticancer assay (SRB), MCF-7; type: cell-based, human
Description: (§3) All stock cultures were grown in T-25 flasks. Freshly trypsinized cell suspensions were seeded in 96-well microtiter plates at densities of 1500-7500 cells per well with compounds added from DMSO-diluted stock. After 3 days in culture, attached cells were fixed with cold 50% trichloroacetic acid and then stained with 0.4% sulforhodamine B (SRB). The absorbency at 562 nm was measured using a microplate reader after solubilizing the bound dye.
as §3, with “Biological assay. All” for “All”, “cultures are” for “cultures were”, “96-well microtitre” for “96-well microtiter”

[3] = tested on: LN-CaP (AR-dependent prostate cancer); assay: In vitro anticancer assay (SRB), LN-CaP; type: cell-based, human; settings: for ED50, LN-CaP: concentration that reduces cell growth by 50%, 3 days in culture, SRB
Description: as §1
as §3, with “Biological assay. All” for “All”, “cultures are” for “cultures were”, “96-well microtitre” for “96-well microtiter”, “dye. The mean ED50 is the concentration of agent that reduces cell growth by 50% under the experimental conditions and is the average from at least three independent determinations that were reproducible and statistically significant. […]” for “dye.”

[4] = tested on: ZR-75-1 (estrogen receptor positive breast cancer); assay: In vitro anticancer assay (SRB), ZR-75-1; type: cell-based, human; settings: concentration that reduces cell growth by 50%, 3 days in culture
Description: as §3
as §3, with “Biological assay. All” for “All”, “cultures are” for “cultures were”, “96-well microtitre” for “96-well microtiter”

[5] = tested on: KB (nasopharyngeal carcinoma); assay: In vitro anticancer assay (SRB), KB; type: cell-based, human
Description: as §1, §2

[6] = tested on: several human cancer cell lines; assay: Cytotoxic activity against several human tumor cell lines (panel, overall statements); type: cell-based; settings: at concentrations up to 10 μg/mL
Description: as §1
as §3, with “Biological assay. All” for “All”, “cultures are” for “cultures were”, “96-well microtitre” for “96-well microtiter”, “dye. […]” for “dye.”

[7] = tested on: MDA-MB-231 (estrogen receptor negative breast cancer); assay: In vitro anticancer assay (SRB), MDA-MB-231; type: cell-based, human
Description: as §3
as §3, with “Biological assay. All” for “All”, “cultures are” for “cultures were”, “96-well microtitre” for “96-well microtiter”

[8] = tested on: HS 587-T (estrogen receptor negative breast cancer); assay: In vitro anticancer assay (SRB), HS 587-T; type: cell-based, human; settings: concentration that reduces cell growth by 50%, 3 days in culture
Description: as §3
as §3, with “Biological assay. All” for “All”, “cultures are” for “cultures were”, “96-well microtitre” for “96-well microtiter”

[9] = tested on: ER+ human breast cancer (MCF-7 and ZR-75-1); assay: Comparison of potency and selectivity against ER+ breast cancer cell lines in vitro; type: cell-based
Description: as §1
as §3, with “Biological assay. All” for “All”, “cultures are” for “cultures were”, “96-well microtitre” for “96-well microtiter”, “dye. The mean ED50 is the concentration of agent that reduces cell growth by 50% under the experimental conditions and is the average from at least three independent determinations that were reproducible and statistically significant. […]” for “dye.”

[10] = tested on: A549 (non small cell lung cancer); assay: In vitro anticancer assay (SRB), A549; type: cell-based, human
Description: as §3, with “In Vitro Anticancer Assay (Nakanishi, Y. et al., J. Med. Chem. 2003, 46, 3185). All” for “All”, “dye. The mean ED50 is the concentration of agent that reduces cell growth by 50% under the experimental conditions and is the average from at least three independent determinations that were reproducible and statistically significant (FIG. 2). […]” for “dye.”
(§4) Biological assay. […] The absorbency at 562 nm was measured using a microplate reader after solubilizing the bound dye. […]

PC-3 (prostate cancer) = assay: In vitro anticancer assay (SRB), PC-3; type: cell-based, human; settings: concentration that reduces cell growth by 50%, 3 days in culture
Description: as §3, with “In Vitro Anticancer Assay (Nakanishi, Y. et al., J. Med. Chem. 2003, 46, 3185). All” for “All”, “dye. The mean ED50 is the concentration of agent that reduces cell growth by 50% under the experimental conditions and is the average from at least three independent determinations that were reproducible and statistically significant (FIG. 2). […]” for “dye.”
as §4

[11] = tested on: A431 (EGFR over-expressing skin cancer); assay: In vitro anticancer assay (SRB), A431; type: cell-based, human
Description: as §1, §2

[12] = tested on: KB-VIN (vincristine-resistant KB subline); assay: In vitro anticancer assay (SRB), KB-VIN; type: cell-based, human; settings: for ED50, KB-VIN: concentration that reduces cell growth by 50%, 3 days in culture, SRB
Description: as §1
as §3, with “Biological assay. All” for “All”, “cultures are” for “cultures were”, “96-well microtitre” for “96-well microtiter”, “dye. […]” for “dye.”

[13] = concentration that reduces cell growth by 50%, 3 days in culture, SRB
[14] = concentration that reduces cell growth by 50%, 3 days in culture, SRB, listed as Neo-tashinlactone (1)
[15] = against ER+ (ER+ and HER-2++) breast cancer in vitro
[16] = concentration that reduces cell growth by 50%, 3 days in culture, SRB, listed as Tamoxifen citrate

Cc1cccc2c1ccc1c3occ(C)c3c(=O)oc21 [Compound 1, Neo-tanshinlactone]
Percent inhibition at the test concentration (bracketed value), SW620 (SW620 (colon cancer); at 10 μg/mL (Table 2)): 22% | ED50, SW620 (SW620 (colon cancer); [13]): > 10 µg/mL | activity against SK-BR-3 (in words) ([1]; HER-2-overexpressing breast cancer cell line): active | ED50, SK-BR-3 (ER−, HER2+) [1, 13]: 0.2 µg/mL and 0.18 µg/mL | fold more sensitive, SK-BR-3 versus MCF-7 ([1]; ratio of sensitivity of the two cell lines): 3 fold | Percent inhibition at the test concentration (bracketed value), MCF-7 ([2]; at 2.5 μg/mL (Table 1)): 57% | ED50, MCF-7 (ER+) [2, 13]: 0.6 µg/mL and 0.60 µg/mL | ED50, MCF-7 (ER+) [2, 14]: < 2.5 µg/mL | concentration at which active against MCF-7 ([2]; first screen, Example 1): 0.6˜1.2 μg/mL | activity against LN-CaP (in words) ([3]; AR-dependent prostate cancer cell line): essentially inactive | Percent inhibition at the test concentration (bracketed value), LN-CaP ([3]; at 10 μg/mL (Table 2)): 28-36% | ED50, LN-CaP [3]: > 10 µg/mL | ED50, ZR-75-1 (ER+) [4]: 0.25 µg/mL (≈ 0.946 µM) | Percent inhibition at the test concentration (bracketed value), KB ([5]; at 10 μg/mL (Table 2)): 18% | ED50, KB [5, 13]: > 10 µg/mL | activity against other cell lines in the panel (in words) [6]: insignificant activity | Percent inhibition at the test concentration (bracketed value), MDA-MB-231 ([7]; at 20 μg/mL (Table 1)): 17% | ED50, MDA-MB-231 (ER−) [7, 13]: 10 µg/mL and 10.0 µg/mL | ED50, MDA-MB-231 (ER−) [7, 14]: > 20 µg/mL | ED50, HS 587-T (ER−) ([8]; printed HS587-1 in Table 4): 16 µg/mL and 16.0 µg/mL | fold more potent than tamoxifen citrate [9, 15]: 10 fold | fold more selective than tamoxifen citrate [9, 15]: 20 fold | times better activity than compound 2a and tamoxifen ([9]; against ER+ cell lines): 10 times | Percent inhibition at the test concentration (bracketed value), A549 ([10]; at 20 μg/mL (Table 1)): 10% | ED50, A549 [10, 13]: > 20 µg/mL | ED50, PC-3 (PC-3 (prostate cancer)): 10 µg/mL (≈ 37.8 µM) | activity against A431 (in words) ([11]; EGFR overexpressing skin cancer cell line): essentially inactive | Percent inhibition at the test concentration (bracketed value), A431 ([11]; at 10 μg/mL (Table 2)): 35% | ED50, A431 [11, 13]: > 10 µg/mL | Percent inhibition at the test concentration (bracketed value), KB-VIN ([12]; at 10 μg/mL (Table 2)): 9% | ED50, KB-VIN [12]: > 10 µg/mL

CC/C(=C(\c1ccccc1)c1ccc(OCCN(C)C)cc1)c1ccccc1 [TAM, tamoxifen citrate, reference compound]
IC50 (SW620 (colon cancer); Homo sapiens, SW-620, 72 h, concentration that reduces cell growth by 50%, 3 days in culture, SRB, read-out: ED50, SW620): 4 µg/mL | ED50, SW620 (SW620 (colon cancer); [13]): 4.0 µg/mL | IC50 ([1]; Homo sapiens, SK-BR-3, 72 h, concentration that reduces cell growth by 50%, 3 days in culture, SRB, read-out: ED50, SK-BR-3 (ER−, HER2+)): 5 µg/mL | ED50, SK-BR-3 (ER−, HER2+) [1, 13]: 5.0 µg/mL | IC50 ([2]; Homo sapiens, MCF7, 72 h, concentration that reduces cell growth by 50%, 3 days in culture, SRB, read-out: ED50, MCF-7 (ER+)): 5 µg/mL | ED50, MCF-7 (ER+) [2, 13]: 5.0 µg/mL | ED50, MCF-7 (ER+) [2, 16]: 5.0 µg/mL | ED50, LN-CaP [3]: 6 µg/mL | IC50 ([4]; Homo sapiens, ZR-75-1, 72 h, read-out: ED50, ZR-75-1 (ER+)): 5 µg/mL | ED50, ZR-75-1 (ER+) ([4]; listed as Tamoxifen citrate): 3.6 µg/mL | IC50 ([5]; Homo sapiens, 72 h, concentration that reduces cell growth by 50%, 3 days in culture, SRB, read-out: ED50, KB): 9 µg/mL | ED50, KB [5, 13]: 9.0 µg/mL | IC50 ([7]; Homo sapiens, MDA-MB-231, 72 h, concentration that reduces cell growth by 50%, 3 days in culture, SRB, read-out: ED50, MDA-MB-231 (ER−)): 8 µg/mL | ED50, MDA-MB-231 (ER−) [7, 16]: 7.0 µg/mL | ED50, HS 587-T (ER−) ([8]; printed HS587-1 in Table 4): 9 µg/mL and 7.0 µg/mL | ED50, HS 587-T (ER−) ([8]; printed HS587-1 in Table 4, listed as Tamoxifen citrate): 8.5 µg/mL | ED50, PC-3 (PC-3 (prostate cancer)): 10 µg/mL | IC50 ([11]; Homo sapiens, A-431, 72 h, concentration that reduces cell growth by 50%, 3 days in culture, SRB, read-out: ED50, A431): 7 µg/mL | ED50, A431 [11, 13]: 7.0 µg/mL | ED50, KB-VIN [12]: 9 µg/mL
